From PubChem BioAssay AID328 (DTP/NCI, 2004)
Where “and” joins values, the source holds several entries; their conditions need not be identical. Equal values may be shown once. Inconclusive results and toxic doses are left out.

System: BDF1 mice, P388 leukemia ip, median survival T/C
Assay: NCI In Vivo Anticancer Drug Screen. Data for tumor model P388 Leukemia (intraperitoneal) in B6D2F1 (BDF1) mice
Details: endpoint: median survival time, higher = longer survival
Procedure, shortened: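 Read-out is survival of treated animals expressed relative to the vehicle group, as a T/C ratio.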

[1] = dose: 50.0 mg/kg/injection, schedule: Q01DX009 (ip), vehicle: saline with Tween-80
[2] = dose: 100.0 mg/kg/injection, schedule: Q01DX009 (ip), vehicle: saline with Tween-80
[3] = dose: 200.0 mg/kg/injection, schedule: Q01DX009 (ip), vehicle: saline with Tween-80
[4] = dose: 100.0 mg/kg/injection, schedule: Q04DX003 (ip), vehicle: saline with Tween-80
[5] = dose: 200.0 mg/kg/injection, schedule: Q04DX003 (ip), vehicle: saline with Tween-80
[6] = dose: 400.0 mg/kg/injection, schedule: Q04DX003 (ip), vehicle: saline with Tween-80

## O=C1CN=C(c2ccc[nH]2)c2cc(Cl)ccc2N1
dose: 25.0 mg/kg/injection, schedule: Q01DX009 (ip), vehicle: saline with Tween-80
  T/C: 118 % of control
dose: 45.0 mg/kg/injection, schedule: Q01DX009 (oral), vehicle: saline
  T/C: 104 % of control
[1]
  T/C: 100 % of control
dose: 50.0 mg/kg/injection, schedule: Q01DX009 (ip), vehicle: saline
  T/C: 97 % of control
dose: 65.0 mg/kg/injection, schedule: Q01DX009 (oral), vehicle: saline
  T/C: 100 % of control
dose: 100.0 mg/kg/injection, schedule: Q01DX001 (ip), vehicle: saline with Tween-80
  T/C: 95 % of control
dose: 100.0 mg/kg/injection, schedule: Q01DX001 (oral), vehicle: saline with Tween-80
  T/C: 90 % of control
[2]
  T/C: 118 % of control
dose: 100.0 mg/kg/injection, schedule: Q01DX009 (ip), vehicle: saline
  T/C: 105 % of control
dose: 100.0 mg/kg/injection, schedule: Q01DX009 (oral), vehicle: saline with Tween-80
  T/C: 95 % of control
dose: 200.0 mg/kg/injection, schedule: Q01DX001 (ip), vehicle: saline with Tween-80
  T/C: 104 % of control
dose: 200.0 mg/kg/injection, schedule: Q01DX001 (oral), vehicle: saline with Tween-80
  T/C: 86 % of control
[3]
  T/C: 118 % of control
dose: 200.0 mg/kg/injection, schedule: Q01DX009 (ip), vehicle: saline
  T/C: 97 % of control
dose: 200.0 mg/kg/injection, schedule: Q01DX009 (oral), vehicle: saline with Tween-80
  T/C: 104 % of control
dose: 400.0 mg/kg/injection, schedule: Q01DX001 (ip), vehicle: saline with Tween-80
  T/C: 90 % of control
dose: 400.0 mg/kg/injection, schedule: Q01DX001 (oral), vehicle: saline with Tween-80
  T/C: 95 % of control
dose: 400.0 mg/kg/injection, schedule: Q01DX009 (ip), vehicle: saline with Tween-80
  T/C: 163 % of control
dose: 400.0 mg/kg/injection, schedule: Q01DX009 (ip), vehicle: saline
  T/C: 103 % of control
dose: 800.0 mg/kg/injection, schedule: Q01DX001 (ip), vehicle: saline with Tween-80
  T/C: 109 % of control
dose: 800.0 mg/kg/injection, schedule: Q01DX001 (oral), vehicle: saline with Tween-80
  T/C: 100 % of control

## CCN(CCO)CC(C)Nc1ccc([N+](=O)[O-])c2sc3ccccc3c(=O)c12 (configuration not stated)
dose: 33.0 mg/kg/injection, schedule: Q01DX009 (ip), vehicle: saline with Tween-80
  T/C: 195 % of control
[1]
  T/C: 177 % of control
dose: 66.0 mg/kg/injection, schedule: Q04DX003 (ip), vehicle: saline with Tween-80
  T/C: 162 % of control
dose: 75.0 mg/kg/injection, schedule: Q01DX009 (ip), vehicle: saline with Tween-80
  T/C: 95 % of control
[4]
  T/C: 191 % of control and 200 % of control
dose: 150.0 mg/kg/injection, schedule: Q04DX003 (ip), vehicle: saline with Tween-80
  T/C: 220 % of control
[5]
  T/C: 113 % of control
[6]
  T/C: 95 % of control

## O=C(CN1CC1)NCCCCCCCCCNC(=O)CN1CC1
dose: 8.0 mg/kg/injection, schedule: Q04DX003 (ip), vehicle: saline
  T/C: 122 % of control
dose: 12.0 mg/kg/injection, schedule: Q04DX003 (ip), vehicle: saline
  T/C: 122 % of control
dose: 18.0 mg/kg/injection, schedule: Q04DX003 (ip), vehicle: saline
  T/C: 122 % of control
dose: 18.75 mg/kg/injection, schedule: Q04DX003 (ip), vehicle: saline sonified
  T/C: 218 % of control
dose: 37.5 mg/kg/injection, schedule: Q04DX003 (ip), vehicle: saline sonified
  T/C: 172 % of control

## COc1cc(-n2c(CCc3nc(-c4ccc(Cl)cc4)no3)n[nH]c2=S)c(OC)cc1Cl
[1]
  T/C: 100 % of control
[2]
  T/C: 103 % of control
[3]
  T/C: 110 % of control

## CC(C)(C)C1CCC(O)C(Cl)C1 (configuration not stated)
dose: 50.0 mg/kg/injection, schedule: Q04DX003 (ip), vehicle: Klucel (hydroxypropylcellulose) (HPC)
  T/C: 95 % of control
dose: 100.0 mg/kg/injection, schedule: Q04DX003 (ip), vehicle: Klucel (hydroxypropylcellulose) (HPC)
  T/C: 109 % of control
dose: 200.0 mg/kg/injection, schedule: Q04DX003 (ip), vehicle: Klucel (hydroxypropylcellulose) (HPC)
  T/C: 109 % of control

## COc1ccc2c(c1)C(C)(C)Oc1cc3oc(C(=O)O)cc(=O)c3cc1-2
[4]
  T/C: 104 % of control
[5]
  T/C: 101 % of control
[6]
  T/C: 104 % of control

## O[C@@H]1CCCC[C@@H]1n1cnc2c(=S)nc[nH]c21
[2]
  T/C: 92 % of control
[4]
  T/C: 100 % of control
[3]
  T/C: 96 % of control
[5]
  T/C: 104 % of control
[6]
  T/C: 100 % of control

## O=c1[nH]c(=O)c(C2OC(CO)C(O)C2O)co1 (configuration not stated)
dose: 20.0 mg/kg/injection, schedule: Q04DX003 (ip), vehicle: saline with Tween-80
  T/C: 100 % of control

## CCOC(=O)C1C(C)OC(=O)C(Br)C1C (configuration not stated)
[1]
  T/C: 97 % of control
[2]
  T/C: 98 % of control
[3]
  T/C: 104 % of control
